Reference: US9328374B2, “Selective culture medium and method for detecting carbapenem-resistant bacteria in a test sample” (Institut National de la Sante et de la Recherche Medicale …, priority 2011, dated 2016)
Read-outs that look alike come from different tables or passages of the source.

Columns and labels:
Experiment in all cases: MIC of imipenem, ertapenem and meropenem
E. cloacae = format: cell-based, Enterobacter cloacae; details: Enterobacter cloacae, read-out: MIC
C. freundii = format: cell-based, Citrobacter freundii
E. coli = format: cell-based, Escherichia coli; details: Escherichia coli

C[C@@H](O)[C@H]1C(=O)N2C(C(=O)O)=C(S[C@@H]3CN[C@H](C(=O)Nc4cccc(C(=O)O)c4)C3)[C@H](C)[C@H]12 [ETP, ertapenem]
MIC (E. cloacae; E. cloacae 501, OXA-48 + TEM-1 + CTX-M-15): 16 µg/mL
MIC (E. cloacae; E. cloacae 1012, TEM-1 + SHV-12, non-carbapenemase producer): 0.016 µg/mL
MIC (E. cloacae; E. cloacae 1027, TEM-1 + CTX-M-15, non-carbapenemase producer): 0.016 µg/mL
MIC (E. cloacae; E. cloacae 5434 (wild type)): 0.016 µg/mL
MIC (E. cloacae; E. cloacae 5434, (wild type), non-carbapenemase producer): 0.016 µg/mL
MIC (E. cloacae; E. cloacae 7725, (wild type), non-carbapenemase producer): 0.008 µg/mL
MIC (E. cloacae; E. cloacae 7746, (wild type), non-carbapenemase producer): 0.064 µg/mL
MIC (E. cloacae; E. cloacae 10111 (TEM-1 + CTX-M-15)): 0.75 µg/mL
MIC (E. cloacae; E. cloacae 1008029, VIM-1+ CTX-M-3): > 32 µg/mL
MIC (E. cloacae; E. cloacae 1008079, IMP-1): > 32 µg/mL
MIC (E. cloacae; E. cloacae 1008187, IMP-1 + CTX-M-15): > 32 µg/mL
MIC (E. cloacae; E. cloacae (KPC-2)): 6 µg/mL
MIC (E. cloacae; E. cloacae BEU, OXA-48 + TEM-1 + CTX-M-15 + SHV-12): 8 µg/mL
MIC (E. cloacae; E. cloacae CFVL, KPC-2 + TEM-3): 2 µg/mL
MIC (E. cloacae; E. cloacae CLO (CTX-M-15)): 0.12 µg/mL
MIC (E. cloacae; E. cloacae CLO, CTX-M-15, non-carbapenemase producer): 0.12 µg/mL
MIC (E. cloacae; E. cloacae CVB (VEB-1)): 0.12 µg/mL
MIC (E. cloacae; E. cloacae CVB, VEB-1, non-carbapenemase producer): 0.12 µg/mL
MIC (E. cloacae; E. cloacae HMG, KPC-2 + TEM-1): > 32 µg/mL
MIC (E. cloacae; E. cloacae HPTU (KPC-2 + TEM-1 + SHV-11)): 4 µg/mL
MIC (E. cloacae; E. cloacae HPTU, KPC-2 + TEM-1 + SHV-11): 4 µg/mL
MIC (E. cloacae; E. cloacae IR38 (NDM-1 + CTX-M-15)): 16 µg/mL
MIC (E. cloacae; E. cloacae IR38, NDM-1 + CTX-M-15): 16 µg/mL
MIC (E. cloacae; E. cloacae KAR, VIM-1+ SHV-70): 0.38 µg/mL
MIC (E. cloacae; E. cloacae TAW (IMP-8 + SHV-12)): 0.5 µg/mL
MIC (E. cloacae; E. cloacae TAW, IMP-8 + SHV-12): 0.5 µg/mL
MIC (E. cloacae; E. cloacae TUR (OXA-48 + SHV-5)): 0.5 µg/mL
MIC (E. cloacae; E. cloacae TUR, OXA-48 + SHV-5): 0.5 µg/mL
MIC (E. cloacae; E. cloacae TWA, IMP-8): 1 µg/mL
MIC (E. cloacae; strain E. cloacae 10111, TEM-1 + CTX-M-15, non-carbapenemase producer): 0.75 µg/mL
MIC (E. cloacae; strain E. cloacae CLO, CTX-M-15, non-carbapenemase producer): 0.12 µg/mL
MIC (E. cloacae; strain E. cloacae CVB, VEB-1, non-carbapenemase producer): 0.12 µg/mL
MIC (E. cloacae; strain E. cloacae HPTU, KPC-2 + TEM-1 + SHV-11): 4 µg/mL
MIC (E. cloacae; strain E. cloacae TAW, IMP-8 + SHV-12): 0.5 µg/mL
MIC (E. cloacae; strain E. cloacae TUR, OXA-48 + SHV-5): 0.5 µg/mL
MIC (C. freundii; C. freundii MAU, Overexpressed AmpC + TEM-3, non-carbapenemase producer): 8 µg/mL
MIC (C. freundii; Citrobacter freundii, C. freundii 1003, CTX-M-15 + TEM-1, non-carbapenemase producer, read-out: MIC): 0.016 µg/mL
MIC (C. freundii; Citrobacter freundii, C. freundii 7767 (wild type), read-out: MIC): 0.008 µg/mL
MIC (C. freundii; Citrobacter freundii, C. freundii 7767, (wild type), non-carbapenemase producer, read-out: MIC): 0.008 µg/mL
MIC (C. freundii; Citrobacter freundii, C. freundii 10107 (TEM-1 + SHV-12), read-out: MIC): 0.016 µg/mL
MIC (C. freundii; Citrobacter freundii, C. freundii 10107, TEM-1 + SHV-12, non-carbapenemase producer, read-out: MIC): 0.016 µg/mL
MIC (C. freundii; Citrobacter freundii, C. freundii 10135 (CTX-M-15), read-out: MIC): 0.016 µg/mL
MIC (C. freundii; Citrobacter freundii, C. freundii 10135, CTX-M-15, non-carbapenemase producer, read-out: MIC): 0.016 µg/mL
MIC (C. freundii; Citrobacter freundii, C. freundii STE (NDM-1 + OXA-1 + OXA-9 + OXA-10 + CTX-M-15 + TEM-1), read-out: MIC): > 32 µg/mL
MIC (C. freundii; Citrobacter freundii, C. freundii STE, NDM-1 + TEM-1 + CTX-M-15 + VIM-4 + OXA-1 + OXA-9 + OXA-10 + OXA-181, read-out: MIC): > 32 µg/mL
MIC (C. freundii; Citrobacter freundii, strain C. freundii 10107, TEM-1 + SHV-12, non-carbapenemase producer, read-out: MIC): 0.016 µg/mL
MIC (C. freundii; Citrobacter freundii, strain C. freundii 10135, CTX-M-15, non-carbapenemase producer, read-out: MIC): 0.016 µg/mL
MIC (C. freundii; strain C. freundii MAU, Overexpressed AmpC + TEM-3, non-carbapenemase producer): 8 µg/mL
MIC (E. coli; E. coli 1020, CTX-M-1 + TEM-1, non-carbapenemase producer): 0.023 µg/mL
MIC (E. coli; E. coli 1023, CTX-M-2 + TEM-1, non-carbapenemase producer, read-out: MIC): 0.016 µg/mL
MIC (E. coli; E. coli 1034, TEM-1 + SHV-38, non-carbapenemase producer, read-out: MIC): 0.006 µg/mL
MIC (E. coli; E. coli 1048, TEM-1 + SHV-2a, non-carbapenemase producer, read-out: MIC): 0.012 µg/mL
MIC (E. coli; E. coli 1082 (TEM-1)): 0.019 µg/mL
MIC (E. coli; E. coli 1082, TEM-1, non-carbapenemase producer): 0.019 µg/mL
MIC (E. coli; E. coli 1092, OXA-1, non-carbapenemase producer, read-out: MIC): 0.19 µg/mL
MIC (E. coli; E. coli 6252, (wild type), non-carbapenemase producer): 0.004 µg/mL
MIC (E. coli; E. coli 10121, CTX-M-2, non-carbapenemase producer, read-out: MIC): 0.016 µg/mL
MIC (E. coli; E. coli 1108013, IMP-1 + TEM-1, read-out: MIC): 4 µg/mL
MIC (E. coli; E. coli AUS (NDM-1 + CTX-M-15 + TEM-1), read-out: MIC): 32 µg/mL
MIC (E. coli; E. coli AUS, NDM-1 + TEM-1 + CTX-M-15, read-out: MIC): 32 µg/mL
